Results: the NIST ThermoML archive (doi:10.1021/je060420p)
± gives the expanded uncertainty stated by the source.

Assays:
[1] = 101.33 kPa, Liquid
[2] = refractive index (Na D-line) (dimensionless); conditions: 101.33 kPa, Liquid, Standard Abbe refractometry
[3] = excess molar enthalpy (molar enthalpy of mixing); xn = mol fraction of the nth substance listed; conditions: 101 kPa, Liquid, Calvet calorimetry

Cc1ccc(C(C)C)cc1 [1-(1-methylethyl)-4-methylbenzene]
Conditions	mass density, 298.15 K [kg/m3]	mass density, 308.15 K [kg/m3]	mass density, 318.15 K [kg/m3]	refractive index, 298.15 K	refractive index, 308.15 K	refractive index, 318.15 K
[1]	853.47 ± 1.1	845.59 ± 1.1	838.46 ± 1.1	–	–	–
[2]	–	–	–	1.4878 ± 0.0006	1.4831 ± 0.0006	1.4789 ± 0.0006

CC1=CCC2CC1C2(C)C (centres undefined) [2-pinene]
Conditions	mass density, 298.15 K [kg/m3]	mass density, 308.15 K [kg/m3]	mass density, 318.15 K [kg/m3]	refractive index, 298.15 K	refractive index, 308.15 K	refractive index, 318.15 K
[1]	854.03 ± 0.93	845.79 ± 0.97	838.64 ± 1	–	–	–
[2]	–	–	–	1.4626 ± 0.0006	1.4581 ± 0.0006	1.4542 ± 0.0006

CC1=CCC2CC1C2(C)C (centres undefined) [2-pinene] + C=C1CCC2CC1C2(C)C
[3]
Conditions	excess molar enthalpy [kcal/mol]
298.15 K, x1 = 0.2012	0.00167 ± 0.000191
298.15 K, x1 = 0.3013	0.0022 ± 0.000191
298.15 K, x1 = 0.3987	0.00253 ± 0.000215
298.15 K, x1 = 0.4993	0.00265 ± 0.000215
298.15 K, x1 = 0.5994	0.00246 ± 0.000215
298.15 K, x1 = 0.7023	0.00227 ± 0.000215
298.15 K, x1 = 0.7998	0.00174 ± 0.000191
308.15 K, x1 = 0.2	0.00179 ± 0.000191
308.15 K, x1 = 0.3004	0.00241 ± 0.000215
308.15 K, x1 = 0.3999	0.00272 ± 0.000215
308.15 K, x1 = 0.5006	0.00284 ± 0.000215
308.15 K, x1 = 0.6013	0.00261 ± 0.000215
308.15 K, x1 = 0.6972	0.00237 ± 0.000215
308.15 K, x1 = 0.7998	0.00177 ± 0.000191
318.15 K, x1 = 0.2003	0.0021 ± 0.000191
318.15 K, x1 = 0.3001	0.00268 ± 0.000215
318.15 K, x1 = 0.4034	0.00304 ± 0.000215
318.15 K, x1 = 0.5	0.00315 ± 0.000215
318.15 K, x1 = 0.6004	0.00301 ± 0.000215
318.15 K, x1 = 0.7012	0.00272 ± 0.000215
318.15 K, x1 = 0.7975	0.00201 ± 0.000191

C=C1CCC2CC1C2(C)C (stereo not drawn) [β-pinene]
Conditions	mass density, 298.15 K [kg/m3]	mass density, 308.15 K [kg/m3]	mass density, 318.15 K [kg/m3]	refractive index, 298.15 K	refractive index, 308.15 K	refractive index, 318.15 K
[1]	867.06 ± 0.9	859.08 ± 0.93	852.08 ± 0.96	–	–	–
[2]	–	–	–	1.476 ± 0.0006	1.4714 ± 0.0006	1.4665 ± 0.0006
